Values of other authors, collected in patent US7803755B2, “Molecules for the treatment and prevention of fungal diseases” (priority 2006, dated 2010).
Counter-ions that a name gives are not always drawn.

Tests used:
onychomycosis = conditions: after using ciclopirox lacquer
[1] = system: Trichophyton rubrum, Trichophyton mentagrophytes, Trichophyton tonsurans, Epidermophyton floccosum, Microsporum canis, Microsporum audouini, and Microsporum …; conditions: wide spectrum of organisms
[2] = system: Candida species, including Candida albicans

Cc1cc(C2CCCCC2)n(O)c(=O)c1 [Ciclopirox]
patients rating their onychomycosis as improved (onychomycosis): 90%

CN(C/C=C/c1ccccc1)Cc1cccc2ccccc12 [Naftifine hydrochloride, naftifine hydrochloride]
antifungal activity in vitro [1]: fungicidal activity | antifungal activity in vitro [2]: fungistatic activity
